Reference: patent US20030017590A1, “PRODUCTION OF HUMAN CNS NEURONS FROM EMBRYONAL CARCINOMA CELLS USING CELL AGGREGATION METHOD” (priority 1999, published 2003)
“Also recorded” adds a separate entry of the source.

Legend:
NT2 cells [1] = experiment: RA-induced neuronal differentiation of NT2 cell aggregates (phase contrast morphology); assay type: cell-based, human; settings: for number of neurons that could be prepared: NT2 aggregates
Description: NT2 cells were cultured as previously described (Pleasure, S. J. et al., 1992, J. Neurosci. 12:1802-1815). Briefly, cells were maintained in OptiMEMI-reduced serum medium (GIBCO, Palo Alto, Calif., USA) supplemented with 5% fetal bovine serum (FBS; GIBCO, Palo Alto, Calif., USA). When NT2 cells were differentiated by the standard protocol, NT2 cells were seeded at 2×10^6 cells per 75 cm^2 in Dulbecco's Modified Eagle's medium (high glucose formulation) (DMEM-HG; GIBCO, Palo Alto, Calif., USA) and were treated with a final concentration of 10 μM all-trans RA (SIGMA, St. Louis, Mo., USA). In the cell aggregation studies, cells were dislodged by trypsinization and were plated at 1×10^5 cells per ml into a 85-mm bacteriological grade petri dish in DMEM-HG supplemented 10% FBS. After incubation overnight at 37° C. in a 5% CO2 incubator, the aggregates were supplemented with a final concentration of 10 μM all-trans RA. The medium was replaced every two days. After 14 days of RA treatment, aggregates were plated onto tissue culture grade petri dish pre-coated with 10 μg/ml poly-D-lysine (PDL; SIGMA, St. Louis, Mo., USA), 10 μg/ml mouse laminin (LAM; GIBCO, Palo Alto, Calif., USA) and 0.1% gelatin (SIGMA, St. Louis, Mo., USA) in Dulbecco's Phosphate buffered saline (D-PBS; GIBCO, Palo Alto, Calif., USA). Following overnight incubation, aggregates were then cultured in DMEM-HG with 10% FBS supplemented with 1 μM cytosine D-arabinofuranoside (arac; SIGMA, St. Louis, Mo., USA) and 10 μM uridine (SIGMA, St. Louis, Mo., USA). After 3 days of incubation, neurons were detached by tapping gently on the side of the tissue culture plate, or by brief trypsinization, and replated on to a new pre-coated tissue culture plate. Incubation was continued in the presence of araC and uridine for another 4 days. Neurons obtained could be kept in DMEM supplemented with 10% FBS for more than 3 weeks.
To examine the effect of cell aggregation on RA-induced neuronal differentiation, NT2 cells were pre-aggregated as described above. After 14 days of RA treatment, aggregates were plated on PDL and LAM (PDL/LAM) coated plates. […] Phase bright neuron-like cells with long extended neurites continued to migrate out from the NT2 aggregates. At day 3 after replating, these cells grew on the surface of large-flattened cells (FIG. 1). […] However, neuron-like cells were subsequently overwhelmed by both undifferentiated NT2 cells and the differentiated large-flattened cells (Pleasure, S. J. et al., 1992, J. Neurosci. 12:1802-1815).
It is possible that the sustained requirement of RA for the neuronal differentiation of NT2 is indeed due to the lack of cell-cell interaction. To examine this possibility, NT2 cells were maintained as aggregates in bacteriological culture dish for 14 days and RA treatment was given only during the first few days of aggregation (1 to 5 days).

NT2 cells [2] = settings: standard protocol for differentiation; cited from earlier work
monolayer NT2 cells = experiment: Western blot of neuronal markers in RA-treated monolayer NT2 cultures; assay type: cell-based, human; settings: RA 0.1 to 10 μM for 16 days
Description: (§1) FIG. 5. Expression of neuronal markers in RA differentiated NT2 aggregates. NT2 cells were pre-aggregated by RA at concentration (10^−7 to 10^−5 M) for 14 days and replated onto PDL/LAM coated plates for two days. As control experiments, NT2 cells were plated at 2×10^5 cells/ml as monolayer cultures and differentiated with RA (10^−7 to 10^−5 M) for a total of 16 days. Total proteins were extracted and Western blot analysis was performed using antibodies specific against phosphorylated NF-M (NF-M-P; upper panel) and synapsin I (lower panel).
Cells were washed twice with ice-cold PBS followed by a wash with ice-cold PBS supplemented with 1 mM sodium orthovanadate (NaOV; SIGMA, St. Louis, Mo., USA). Cells were then lysed with lysis buffer (50 mM Tris.Cl at pH8, 150 mM NaCl, 1% TX, 1×aprotinin; SIGMA, St. Louis, Mo., USA, 1 mM PMSF; GIBCO, Palo Alto, Calif., USA and 1 mM NaOV) at 4° C. for 15 minutes. Lysates were collected and centrifuged to remove cell debris. Protein assays were performed with Bio-Rad Protein Assay Kit based on the Bradford dye-binding procedure (BIO-RAD, Hercules, Calif., USA). Protein (typically 10 μg) were separated by SDS-PAGE and then electro-transferred to nitrocellulose membrane (MSI, Westborough, Mass., USA). […] After three washes with TBS-Tween, immunoreactive bands were detected using ECL kit (AMERSHAM, Arlington Heights, Ill., USA). […]

NT2 aggregates = experiment: Western blot of neuronal markers in RA-differentiated NT2 aggregates; assay type: cell-based, human
Description: as §1
Cells were washed twice with ice-cold PBS followed by a wash with ice-cold PBS supplemented with 1 mM sodium orthovanadate (NaOV; SIGMA, St. Louis, Mo., USA). Cells were then lysed with lysis buffer (50 mM Tris.Cl at pH8, 150 mM NaCl, 1% TX, 1×aprotinin; SIGMA, St. Louis, Mo., USA, 1 mM PMSF; GIBCO, Palo Alto, Calif., USA and 1 mM NaOV) at 4° C. for 15 minutes. Lysates were collected and centrifuged to remove cell debris. Protein assays were performed with Bio-Rad Protein Assay Kit based on the Bradford dye-binding procedure (BIO-RAD, Hercules, Calif., USA). Protein (typically 10 μg) were separated by SDS-PAGE and then electro-transferred to nitrocellulose membrane (MSI, Westborough, Mass., USA). After blocking at room temperature for 1 hr using TBS-Tween containing 5% non-fat milk, membranes were incubated overnight at 4° C. with primary antibodies in TBS-Tween containing 5% non-fat milk. Membranes were then incubated with horseradish peroxidase conjugated secondary antibodies (1:2000 dilution; AMERSHAM, Arlington Heights, Ill., USA) for 1 hour at room temperature. After three washes with TBS-Tween, immunoreactive bands were detected using ECL kit (AMERSHAM, Arlington Heights, Ill., USA).
To study whether the high concentrations of RA required for inducing neuronal differentiation of NT2 cells could be lowered under the condition of cell aggregation, we exposed the NT2 aggregates to reduced concentration of RA (0.1 to 10 μM). Following treatment of NT2 aggregates with RA for 14 days, these cells were plated onto PDL/LAM coated plates in RA-free medium, and total protein samples were prepared 2 days later. As control, total protein samples were extracted from monolayer NT2 cultures treated with 16 days of RA (0.1 to 10 μM).

NT2 cells [3] = experiment: Indirect immunofluorescent analysis of NT2 neurons differentiated by cell aggregation; assay type: cell-based, human; settings: RA 5 μM for 14 days, two days after replating in RA-free medium
Description: NT2 cells were aggregated and differentiated by RA (5 μM) for 14 days. Two days after replating in RA-free medium, differentiated NT2 cells were fixed and stained with the antibodies specific against TH (upper panel), and phosphorylated NF-M (lower panel). Scale bar, 50 μm.
For immunofluorescent analysis, control or differentiated aggregates cultures were fixed with 4% paraformaldehyde (FLUKA, Hauppauge, N.Y., USA) in PBS. After blocking with 4% normal serum (NS; VECTOR LAB, Burlingame, Calif., USA) in PBS containing 0.4% Triton-X (TX; BOERINGER MANNEHEIM, Mannheim, Germany), and 1% bovine serum albumin (BSA; SIGMA, St. Louis, Mo., USA), aggregates were incubated overnight at 4° C. with primary antibodies diluted in antibody diluent (1% NS, 0.4% TX and 1% BSA). Incubation with secondary antibodies was performed at room temperature for at least 2 hours. Cells were visualized under fluorescence microscope (ZEISS, Jena, Germany). […]
In order to verify whether the phase-bright cells obtained following cell aggregation were neurons, immunocytochemical analysis was performed. High-molecular weight neurofilament proteins (200 kDa) were detected in the neurites of the neurons (FIG. 2). […] In addition, substance P (SP) was detected in both the cell bodies and the neurites of the neurons (FIG. 2). […]

[4] = NT2 aggregates, RA 0.1 to 10 μM

**Q.** For `CC1=C(/C=C/C(C)=C/C=C/C(C)=C/C(=O)O)C(C)(C)CCC1` [RA, all-trans retinoic acid], which “formation of neurons after brief RA treatment” value (NT2 cells [1]; 2 to 3 days of RA treatment (10 μM), cells maintained as aggregates for 14 days) is on record?
**A.** Neurons were observed

**Q.** What about the “neurite outgrowth from NT2 aggregates” value (NT2 cells [1]; 14 days of RA treatment (10 μM), plated on PDL/LAM, overnight incubation without RA) of the same compound?
**A.** Neurite outgrowth was initiated

**Q.** What about the “number of neurons that could be prepared” value (NT2 cells [1]; 0.1 μM RA) of the same compound?
**A.** almost no neurons were observed; also recorded: did not result in cells that resembled neurons

**Q.** And the “number of neurons that could be prepared” value (NT2 cells [1]; 1 μM RA)?
**A.** only a few neurons could be observed

**Q.** And the “time to formation of neurons” value (NT2 cells [1]; NT2 cells treated with RA as aggregates in bacteriological plates)?
**A.** ≤ 16 days

**Q.** What about the “extension of neurites from NT2 cells” value (NT2 cells [1]; RA for only 12 days, 2 days after plating on PDL/LAM) of the same compound?
**A.** extension of neurites from NT2 cells was observed

**Q.** What about the “neuritic outgrowth of RA-treated aggregates” value (NT2 cells [1]; cell aggregation period less than 12 days) of the same compound?
**A.** did not result in observable neuritic outgrowth

**Q.** What about the “time until neuron-like cells observed after RA treatment” value (NT2 cells [2]) of the same compound?
**A.** about five weeks

**Q.** And the “expression of phosphorylated NF-M” value (monolayer NT2 cells)?
**A.** expressed phosphorylated NF-M only at higher concentrations of RA (1 or 10 μM)

**Q.** What about the “expression level of phosphorylated NF-M proteins, aggregates versus monolayer” value (NT2 aggregates; NT2 aggregates at 0.1 μM RA versus monolayer NT2 cells at 10 μM RA) of the same compound?
**A.** comparable expression level

**Q.** What about the “expression level of phosphorylated NF-M proteins versus RA concentration” value (NT2 aggregates; [4]) of the same compound?
**A.** elevated with increased concentration of RA

**Q.** And the “synapsin I protein expression” value (NT2 aggregates; [4])?
**A.** High level of synapsin I protein expression was detected

**Q.** And the “expression of phosphorylated NF-M proteins” value (NT2 aggregates; NT2 aggregates, RA 0.1 to 10 μM for 14 days, 2 days on PDL/LAM)?
**A.** could induce the expression of phosphorylated NF-M proteins

**Q.** And the “expression of neuronal specific proteins (NF200, synapsin I, substance P, GABA)” value (NT2 cells [3])?
**A.** expressed neuronal specific proteins

**Q.** And the “expression of tyrosine hydroxylase (TH)” value (NT2 cells [3])?
**A.** expressed tyrosine hydroxylase (TH)
